# Test results published in patent US20150359220A1, “COMPOSITIONS COMPRISING GOUGEROTIN AND A FUNGICIDE” (BAYER CROPSCIENCE LP, priority 2013, published 2015).
# Counter-ions that a name gives are not always drawn. Like-named read-outs stand apart in the source and are kept apart here.
# Tests used:
# Alternaria solani = assay: Alternaria test (tomatoes)/preventive; format: in vivo; conditions: 3 days after inoculation
# [1] = tested on: Blumeria graminis fsp. hordei; assay: Blumeria test (barley)/preventive; format: in vivo; conditions: 7 days after inoculation
# Phytophthora infestans = assay: whole plant or invertebrate; format: in vivo; conditions: for Efficacy in % found: 3 days after inoculation
# Puccinia triticina = assay: Puccinia triticina-test (wheat)/preventive; format: in vivo; conditions: 8 days after inoculation
# Sphaerotheca fuliginea = assay: Sphaerotheca test (cucumbers)/preventive; format: in vivo
# Venturia inaequalis = assay: Venturia test (apples)/preventive; conditions: for Efficacy in % found: 10 days after inoculation
# Protocol: After the spray coating has dried on, the plants are inoculated with an aqueous conidia suspension of the causal agent of apple scab (Venturia inaequalis) and then remain for 1 day in an incubation cabinet at approximately 20° C. and a relative atmospheric humidity of 100%. The plants are then placed in a greenhouse at approximately 21° C. and a relative atmospheric humidity of approximately 90%.
# The test is evaluated 10 days after the inoculation.
# Botrytis cinerea = assay: Botrytis test (beans)/preventive; conditions: Table 7, size of lesions 2 days after inoculation
# Protocol: After the spray coating has dried on, 2 small pieces of agar covered with growth of Botrytis cinerea are placed on each leaf. The inoculated plants are placed in a darkened chamber at 20° C. and a relative atmospheric humidity of 100%.
# 2 days after the inoculation, the size of the lesions on the leaves is evaluated.
# Septoria tritici = assay: Septoria tritici-test (wheat)/preventive; format: in vivo; conditions: 21 days after inoculation
# Pyrenophora teres = assay: Pyrenophora teres-test (barley)/preventive; format: in vivo; conditions: 8 days after inoculation
# [2] = tested on: gram-positive, gram-negative bacteria and tubercule bacillus; conditions: according to U.S. Pat. No. 3,849,398; cited from earlier work
# [3] = tested on: parasites on animals, such as pin worm; conditions: according to U.S. Pat. No. 3,849,398; cited from earlier work
# [4] = Alternaria solani, topical, 72 h, Table 2, 2 ppm a.i., read-out: Efficacy in % found
# [5] = Phytophthora infestans, topical, 72 h, read-out: Efficacy in % found
# [6] = Podosphaera fuliginea, 168 h, Table 19, 1 ppm a.i., 7 days after inoculation, read-out: Efficacy in % found
# [7] = Venturia inaequalis, 240 h, read-out: Efficacy in % found
# [8] = Alternaria solani, topical, 72 h, Table 4, 50 ppm a.i., read-out: Efficacy in % found
# [9] = Podosphaera fuliginea, 168 h, Table 20, 100 ppm a.i., 7 days after inoculation, read-out: Efficacy in % found
# [10] = Table 18, 0.5 ppm a.i., 7 days after inoculation
# [11] = Table 18, 100 ppm a.i., 7 days after inoculation
# [12] = Table 19, 20 ppm a.i., 7 days after inoculation
compound,measurement,setting,value
"CC1COC(Cn2cncn2)(c2ccc(Oc3ccc(Cl)cc3)cc2Cl)O1 (stereo not shown) [F7, difenoconazole]",pest or weed control at 2 ppm,Alternaria solani; [4],30%
same,Efficacy in % found,"[1]; Table 6, 62.5 ppm a.i.",44%
same,Efficacy in % found,"[1]; Table 6, 125 ppm a.i.",67%
same,pest or weed control at 100 ppm,Phytophthora infestans; [5],0%
same,Efficacy in % found,"Puccinia triticina; Table 13, 31.25 ppm a.i.",30%
same,Efficacy in % found,"Puccinia triticina; Table 13, 62.5 ppm a.i.",60%
same,pest or weed control at 1 ppm,Sphaerotheca fuliginea; [6],0%
same,pest or weed control at 1 ppm,Venturia inaequalis; [7],38%
"CC1(C(=O)Nc2ccc(O)c(Cl)c2Cl)CCCCC1 [F16, fenhexamid]",pest or weed control at 50 ppm,Alternaria solani; [8],50%
same,pest or weed control at 100 ppm,Phytophthora infestans; [5],0%
same,pest or weed control at 100 ppm,Sphaerotheca fuliginea; [9],0%
same,pest or weed control at 25 ppm,Venturia inaequalis; [7],0%
"OC(Cc1ccccc1Cl)(Cn1nc[nH]c1=S)C1(Cl)CC1 (stereo not shown) [F41, prothioconazole]",pest or weed control at 2 ppm,Alternaria solani; [4],0%
same,pest or weed control at 100 ppm,Phytophthora infestans; [5],45%
same,pest or weed control at 1 ppm,Sphaerotheca fuliginea; [6],43%
same,pest or weed control at 1 ppm,Venturia inaequalis; [7],0%
"CCCN(CC)CC1COC2(CCC(C(C)(C)C)CC2)O1 (stereo not shown) [F46, spiroxamine]",pest or weed control at 50 ppm,Alternaria solani; [8],46%
same,Efficacy in % found,"[1]; Table 6, 125 ppm a.i.",11%
same,pest or weed control at 100 ppm,Sphaerotheca fuliginea; [9],30%
same,Efficacy in % found,Botrytis cinerea; 100 ppm a.i.,14%
same,pest or weed control at 50 ppm,Venturia inaequalis; [7],0%
"CC(C)(C)C(O)(CCc1ccc(Cl)cc1)Cn1cncn1 (stereo not shown) [F47, tebuconazole]",pest or weed control at 2 ppm,Alternaria solani; [4],35%
same,Efficacy in % found,"[1]; Table 6, 31.25 ppm a.i.",78%
same,pest or weed control at 100 ppm,Phytophthora infestans; [5],15%
same,Efficacy in % found,"Puccinia triticina; Table 13, 31.25 ppm a.i.",30%
same,Efficacy in % found,"Puccinia triticina; Table 13, 62.5 ppm a.i.",60%
same,Efficacy in % found,"Septoria tritici; Table 17, 125 ppm a.i.",57%
same,pest or weed control at 1 ppm,Venturia inaequalis; [7],0%
"O=C(NCCc1ncc(C(F)(F)F)cc1Cl)c1ccccc1C(F)(F)F [F70, fluopyram]",Efficacy in % found,"Alternaria solani; Table 2, 2 ppm a.i.",40%
same,Efficacy in % found,"[1]; Table 5, 31.25 ppm a.i.",0%
same,Efficacy in % found,"[1]; Table 5, 62.5 ppm a.i.",0%
same,Efficacy in % found,"Pyrenophora teres; Table 15, 31.25 ppm a.i.",60%
same,Efficacy in % found,"Pyrenophora teres; Table 15, 62.5 ppm a.i.",80%
same,Efficacy in % found,"Septoria tritici; Table 16, 62.5 ppm a.i.",0%
same,Efficacy in % found,"Sphaerotheca fuliginea; Table 19, 1 ppm a.i., 7 days after inoculation",0%
same,Efficacy in % found,"Venturia inaequalis; Table 21, 1 ppm a.i.",0%
"CC(C)Oc1cccc(NC(=O)c2ccccc2C(F)(F)F)c1 [F71, flutolanil]",pest or weed control at 100 ppm,Sphaerotheca fuliginea; [9],20%
same,Efficacy in % found,Botrytis cinerea; 250 ppm a.i.,30%
same,pest or weed control at 50 ppm,Venturia inaequalis; [7],0%
"Cn1cc(C(=O)Nc2ccccc2-c2cc(F)c(F)c(F)c2)c(C(F)F)n1 [F72, fluxapyroxad]",Efficacy in % found,"Alternaria solani; Table 2, 0.5 ppm a.i.",45%
same,Efficacy in % found,"[1]; Table 5, 31.25 ppm a.i.",0%
same,Efficacy in % found,"Phytophthora infestans; Table 9, 100 ppm a.i.",0%
same,Efficacy in % found,"Puccinia triticina; Table 12, 15.625 ppm a.i.",22%
same,Efficacy in % found,"Puccinia triticina; Table 12, 31.25 ppm a.i.",22%
same,Efficacy in % found,"Pyrenophora teres; Table 15, 15.625 ppm a.i.",80%
same,Efficacy in % found,"Pyrenophora teres; Table 15, 31.25 ppm a.i.",90%
same,Efficacy in % found,"Septoria tritici; Table 16, 31.25 ppm a.i.",13%
same,Efficacy in % found,"Venturia inaequalis; Table 21, 0.25 ppm a.i.",0%
"Cc1nn(C)c(F)c1C(=O)Nc1ccccc1C(C)CC(C)C (stereo not shown) [F84, penflufen]",Efficacy in % found,"Phytophthora infestans; Table 9, 100 ppm a.i.",8%
same,Efficacy in % found,"Puccinia triticina; Table 12, 31.25 ppm a.i.",67%
same,Efficacy in % found,"Pyrenophora teres; Table 15, 62.5 ppm a.i.",70%
same,Efficacy in % found,"Pyrenophora teres; Table 15, 125 ppm a.i.",60%
same,Efficacy in % found,"Sphaerotheca fuliginea; Table 19, 0.5 ppm a.i., 7 days after inoculation",0%
same,Efficacy in % found,"Venturia inaequalis; Table 21, 0.5 ppm a.i.",0%
"CO/C=C(/C(=O)OC)c1ccccc1Oc1cc(Oc2ccccc2C#N)ncn1 [F107, azoxystrobin]",Efficacy in % found,"Alternaria solani; Table 3, 2 ppm a.i.",41%
same,Efficacy in % found,"[1]; Table 5, 31.25 ppm a.i.",10%
same,Efficacy in % found,"Puccinia triticina; Table 12, 7.8125 ppm a.i.",67%
same,Efficacy in % found,"Pyrenophora teres; Table 15, 15.625 ppm a.i.",60%
same,Efficacy in % found,"Pyrenophora teres; Table 15, 31.25 ppm a.i.",90%
same,Efficacy in % found,"Septoria tritici; Table 16, 15.625 ppm a.i.",13%
same,Efficacy in % found,"Septoria tritici; Table 16, 31.25 ppm a.i.",50%
same,Efficacy in % found,Sphaerotheca fuliginea; [10],37%
same,Efficacy in % found,"Venturia inaequalis; Table 22, 0.5 ppm a.i.",84%
"CSC1=N[C@@](C)(c2ccccc2)C(=O)N1Nc1ccccc1 [F114, fenamidone]",pest or weed control at 50 ppm,"Alternaria solani; Alternaria solani, topical, 72 h, Table 3, 50 ppm a.i., read-out: Efficacy in % found",62%
same,pest or weed control at 1 ppm,Phytophthora infestans; [5],41%
same,pest or weed control at 100 ppm,"Sphaerotheca fuliginea; Podosphaera fuliginea, 168 h, Table 18, 100 ppm a.i., 7 days after inoculation, read-out: Efficacy in % found",21%
same,pest or weed control at 50 ppm,Venturia inaequalis; [7],0%
"COC(=O)N(OC)c1ccccc1COc1ccn(-c2ccc(Cl)cc2)n1 [F121, pyraclostrobin]",Efficacy in % found,"Alternaria solani; Table 3, 2 ppm a.i.",41%
same,Efficacy in % found,"Pyrenophora teres; Table 15, 31.25 ppm a.i.",80%
same,Efficacy in % found,"Septoria tritici; Table 16, 31.25 ppm a.i.",75%
same,Efficacy in % found,Sphaerotheca fuliginea; [10],0%
same,Efficacy in % found,"Venturia inaequalis; Table 22, 0.5 ppm a.i.",0%
"CON=C(C(=O)OC)c1ccccc1CON=C(C)c1cccc(C(F)(F)F)c1 [F126, trifloxystrobin]",Efficacy in % found,"Alternaria solani; Table 3, 2 ppm a.i.",47%
same,Efficacy in % found,"[1]; Table 5, 15.625 ppm a.i.",50%
same,Efficacy in % found,"[1]; Table 5, 31.25 ppm a.i.",60%
same,Efficacy in % found,"Septoria tritici; Table 16, 15.625 ppm a.i.",50%
same,Efficacy in % found,"Septoria tritici; Table 16, 31.25 ppm a.i.",75%
same,Efficacy in % found,Sphaerotheca fuliginea; [10],0%
same,Efficacy in % found,"Venturia inaequalis; Table 22, 0.5 ppm a.i.",53%
"O=C(NCc1ncc(C(F)(F)F)cc1Cl)c1c(Cl)cccc1Cl [F143, fluopicolide]",Efficacy in % found,"Phytophthora infestans; Table 10, 5 ppm a.i.",21%
same,Efficacy in % found,"Venturia inaequalis; Table 22, 50 ppm a.i.",0%
"N#Cc1c(Cl)c(Cl)c(Cl)c(C#N)c1Cl [F155, chlorothalonil]",pest or weed control at 20 ppm,Phytophthora infestans; [5],0%
same,Efficacy in % found,"Pyrenophora teres; Table 14, 250 ppm a.i.",50%
same,Efficacy in % found,"Septoria tritici; Table 17, 125 ppm a.i.",57%
same,pest or weed control at 10 ppm,Venturia inaequalis; [7],4%
"N#Cc1ccccc1NC(=O)c1snc(Cl)c1Cl [F187, isotianil]",Efficacy in % found,"Alternaria solani; Table 4, 50 ppm a.i.",18%
same,Efficacy in % found,"Septoria tritici; Table 17, 250 ppm a.i.",29%
same,Efficacy in % found,"Septoria tritici; Table 17, 500 ppm a.i.",29%
same,Efficacy in % found,"Sphaerotheca fuliginea; Table 20, 100 ppm a.i., 7 days after inoculation",20%
same,Efficacy in % found,Botrytis cinerea; 125 ppm a.i.,40%
same,Efficacy in % found,"Venturia inaequalis; Table 21, 50 ppm a.i.",0%
"C#CCOc1ccc(CCNC(=O)C(OCC#C)c2ccc(Cl)cc2)cc1OC (stereo not shown) [F206, mandipropamid]",Efficacy in % found,"Phytophthora infestans; Table 10, 0.25 ppm a.i.",47%
same,Efficacy in % found,Sphaerotheca fuliginea; [11],13%
"CCCOC(=O)NCCCN(C)C [F220, propamocarb hydrochloride]",pest or weed control at 250 ppm,"Alternaria solani; Alternaria solani, topical, 72 h, Table 4, 250 ppm a.i., read-out: Efficacy in % found",12%
same,pest or weed control at 500 ppm,Phytophthora infestans; [5],7%
same,pest or weed control at 500 ppm,"Sphaerotheca fuliginea; Podosphaera fuliginea, 168 h, Table 20, 500 ppm a.i., 7 days after inoculation, read-out: Efficacy in % found",10%
same,pest or weed control at 250 ppm,Venturia inaequalis; [7],0%
"COCC(=O)N(c1c(C)cccc1C)C(C)C(=O)OC (stereo not shown) [F241, metalaxyl]",Efficacy in % found,"Venturia inaequalis; Table 22, 50 ppm a.i.",0%
"COCC(=O)N(c1c(C)cccc1C)[C@H](C)C(=O)OC [F242, metalaxyl-M]",Efficacy in % found,Sphaerotheca fuliginea; [11],13%
same,Efficacy in % found,"Venturia inaequalis; Table 22, 50 ppm a.i.",0%
"N#Cc1c[nH]cc1-c1cccc2c1OC(F)(F)O2 [F248, fludioxonil]",pest or weed control at 100 ppm,"Sphaerotheca fuliginea; Podosphaera fuliginea, 168 h, read-out: Efficacy in % found",30%
same,Efficacy in % found,Botrytis cinerea; 2.5 ppm a.i.,26%
same,pest or weed control at 50 ppm,Venturia inaequalis; [7],0%
"Cn1c(=O)c2sc3c(=O)n(C)c(=O)c3sc2c1=O [F319, 2,6-dimethyl-1H,5H-[1,4]dithiino[2,3-c:5,6-c′]dipyrrole-1,3,5,7(2H,6H)-tetrone]",Efficacy in % found,"Alternaria solani; Table 2, 50 ppm a.i.",5%
same,Efficacy in % found,"Phytophthora infestans; Table 11, 50 ppm a.i.",5%
same,Efficacy in % found,"Sphaerotheca fuliginea; Table 19, 50 ppm a.i., 7 days after inoculation",0%
same,Efficacy in % found,"Venturia inaequalis; Table 23, 25 ppm a.i.",38%
"CNCC(=O)NC(CO)C(=O)NC1C(C(N)=O)OC(n2ccc(N)nc2=O)C(O)C1O [gougerotin, 1-(4-Amino-2-oxo-1(2H)-pyrimidinyl)-1,4-dideoxy-4-[[N—(N-methylglycyl)-D-seryl]amino]-b-D-glucopyranuronamide]",antibacterial activity,[2],weak antibacterial activity
same,parasiticidal action,[3],parasiticidal action
fosetyl-aluminium [F281],Efficacy in % found,"Alternaria solani; Table 3, 50 ppm a.i.",15%
same,Efficacy in % found,"Phytophthora infestans; Table 10, 50 ppm a.i.",55%
same,Efficacy in % found,Sphaerotheca fuliginea; [11],13%
same,Efficacy in % found,"Venturia inaequalis; Table 22, 50 ppm a.i.",0%
mancozeb [F174],Efficacy in % found,"Phytophthora infestans; Table 11, 20 ppm a.i.",0%
same,Efficacy in % found,Sphaerotheca fuliginea; [12],0%
same,Efficacy in % found,"Venturia inaequalis; Table 23, 10 ppm a.i.",0%
phosphorous acid and its salts [F298],Efficacy in % found,"Phytophthora infestans; Table 10, 500 ppm a.i.",76%
same,Efficacy in % found,"Venturia inaequalis; Table 22, 50 ppm a.i.",0%
propineb [F180],Efficacy in % found,"Phytophthora infestans; Table 11, 20 ppm a.i.",8%
same,Efficacy in % found,Sphaerotheca fuliginea; [12],0%
same,Efficacy in % found,"Venturia inaequalis; Table 23, 10 ppm a.i.",81%
